Data on 16 molecules can be found in ChEMBL document CHEMBL1821631, “A novel binding assay identifies high affinity ligands to the rosiglitazone binding site of mitoNEET” (Bioorg Med Chem Lett, 2011).

Active and inactive are the calls of the source. The rule behind the calls is not given here.

The target of the first experiment is T1, CDGSH iron-sulfur domain-containing protein 1 (Homo sapiens, UniProt Q9NZ45).
T1 sequence (Q9NZ45 whole entry): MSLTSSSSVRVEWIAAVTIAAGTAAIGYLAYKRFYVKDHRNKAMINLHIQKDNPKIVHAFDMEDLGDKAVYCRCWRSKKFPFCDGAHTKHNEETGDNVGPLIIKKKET
As to the kind of experiment: Displacement of [3H]-rosiglitazone from human recombinant C-terminal His-tagged cytosolic domain of mitoNEET (32-108) by scintillation proximity assay.
On to `O=C1NC(=S)S/C1=C/c1ccncc1`, for which the half-inhibitory concentration (IC50) came to 5.97 µM.
Same read-out and setting: under `COc1cc(/C=C2\SC(=S)NC2=O)ccc1O` stands 1.73 µM; under `O=S(=O)(O)Oc1cc(O)cc(/C=C/c2ccc(O)cc2)c1`, 3.36 µM; under `COc1cc(/C=C2/SC(=S)NC2=O)c(OC)cc1O`, 4.47 µM.
The same measure, in the same setting: the result for `Cc1cc(CC2SC(=O)NC2=O)cc(C)c1O` (stereo unspecified) reads 9.56 µM.
Regarding `O=C1NC(=O)/C(=C/c2ccc3nccnc3c2)S1`, the IC50 worked out at 3.26 µM.
On the same count and under the same terms, the result for `O=C(/C=C1/SC(=O)NC1=O)Nc1cccc(O)c1` reads 13.7 µM; that for `O=C1NC(=O)C(Cc2ccc(O)cc2)S1` (stereo unspecified) [GLITAZONE], 14 µM; that for `O=C1NC(=O)C(Cc2ccc3c(c2)OC(F)(F)O3)S1` (stereo unspecified), 5.23 µM.
Still for that read-out and setting: the result for `Cc1cc(C)cc(CC2SC(=O)NC2=O)c1` (stereo unspecified) reads 13.3 µM; that for `O=C1NC(=O)/C(=C\c2cc(Br)c(O)cc2Br)S1`, 2.93 µM.
On the same count and under the same terms, under `O=C(/C=C1/SC(=O)NC1=O)Nc1ccccc1` stands 11.1 µM; under `CC(C)(C)c1cc(CC2SC(=O)N=C2O)cc(C(C)(C)C)c1O` (stereo unspecified), 7.36 µM; under `COc1ccccc1/C=C1\SC(=O)N(CCN)C1=O`, 82.3 µM.

Another experiment deals with T2, CDGSH iron-sulfur domain-containing protein 1 (Homo sapiens) (UniProt Q9NZ45).
T2 sequence (whole entry): T1 sequence (Q9NZ45 whole entry)
As to the kind of experiment: Displacement of [3H]-rosiglitazone from human recombinant C-terminal His-tagged cytosolic domain of mitoNEET (32-108) at 80 uM by scintillation proximity assay.
Take `N#CCCN1C(=O)S/C(=C\c2ccccc2)C1=O`: the inhibition result was “inactive”.
Same read-out and setting: the result for `Oc1ccc(/C=C/c2cc(O)cc(O)c2)cc1` reads “inactive”.
